Literature values in US20090105222A1, “PREVENTION AND TREATMENT OF […] DISORDERS, INCLUDING STRESS-RELATED DISORDERS” (Cypress Bioscience, Inc., priority 2002, published 2009).

Target: NMDA receptor
Settings: reported in literature (Shuto et al.); read-out: IC50 value, NMDA receptor antagonistic properties

Structure (SMILES): CCN(CC)C(=O)C1(c2ccccc2)CC1CN (stereo not shown) [milnacipran]
- IC50: ~6.3 µM
